Values joined by “and” are separate entries in the source; they are usually repeats but may differ in a detail not shown here. Identical values can stand only once.
Tested on: 494315-158-R-J1-PDC complex spheroid growth, percent test/control
Experiment: Anticancer human tumor 494315-158-R-J1-PDC patient-derived soft tissue sarcoma cell line growth inhibition [Asc]
Settings: for viability, T/C: stronger effect = lower value; active = viability on the fitted dose curve at most 10% of control; inactive = the rest
Procedure, shortened: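 Complex spheroids combining tumor cells with HUVEC endothelial cells and human MSCs, at 37 degrees C, 5% CO2; agents tested alone or combined, half-log dilutions from at or near clinical Cmax, or 10 microM if Cmax unknown.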
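Also: compound exposure lasted seven days after spheroids formed for three days.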

CNC(C)C(=O)NC1CN(S(=O)(=O)c2cccc(S(=O)(=O)N3CCC4CCC(C(=O)NC(c5ccccc5)c5ccccc5)N4C(=O)C(NC(=O)C(C)NC)C3)c2)CCC2CCC(C(=O)NC(c3ccccc3)c3ccccc3)N2C1=O (stereo not drawn) + Cc1c(S(C)(=O)=O)c(-c2cc(F)cc(N3CCN(c4ccc(NS(=O)(=O)c5ccc(NC(CCN6CCC(C(=O)OCCCP(=O)(O)O)CC6)CSc6ccccc6)c(S(=O)(=O)C(F)(F)F)c5)cc4)CC3)c2)c(-c2ccc(Cl)cc2)n1C(C)C
18.8 nM: IC50 (curve of first compound, second compound 0.1 µM)
9.57 nM: IC50 (curve of first compound, second compound 1 µM)
inactive: viability, T/C (second compound 0.1 µM, first compound 0.00316 µM) 66.2% | viability, T/C (second compound 0.1 µM, first compound 0.01 µM) 57.6% | viability, T/C (second compound 0.1 µM, first compound 0.0316 µM) 42.9% | viability, T/C (second compound 0.1 µM, first compound 0.1 µM) 36.8% | viability, T/C (second compound 0.1 µM, first compound 0.316 µM) 29.5% | viability, T/C (second compound 0.1 µM, first compound 1 µM) 26.9% | viability, T/C (second compound 0.316 µM, first compound 0.00316 µM) 46.4% | viability, T/C (second compound 0.316 µM, first compound 0.01 µM) 47.5% | viability, T/C (second compound 0.316 µM, first compound 0.0316 µM) 39.1% | viability, T/C (second compound 0.316 µM, first compound 0.1 µM) 39.3% | viability, T/C (second compound 0.316 µM, first compound 0.316 µM) 26% | viability, T/C (second compound 0.316 µM, first compound 1 µM) 30% | viability, T/C (second compound 1 µM, first compound 0.00316 µM) 68.2% | viability, T/C (second compound 1 µM, first compound 0.01 µM) 43.2% | viability, T/C (second compound 1 µM, first compound 0.0316 µM) 42.8% | viability, T/C (second compound 1 µM, first compound 0.1 µM) 34.7% | viability, T/C (second compound 1 µM, first compound 0.316 µM) 26.4% | viability, T/C (second compound 1 µM, first compound 1 µM) 23.9% | viability, T/C (second compound 3.16 µM, first compound 0.00316 µM) 49% | viability, T/C (second compound 3.16 µM, first compound 0.01 µM) 39.7% | viability, T/C (second compound 3.16 µM, first compound 0.0316 µM) 32.6% | viability, T/C (second compound 3.16 µM, first compound 0.1 µM) 21.8% | viability, T/C (second compound 3.16 µM, first compound 0.316 µM) 36.7% | viability, T/C (second compound 3.16 µM, first compound 1 µM) 19.8% | viability, T/C (second compound 10 µM, first compound 0.00316 µM) 60.3% | viability, T/C (second compound 10 µM, first compound 0.01 µM) 60.5% | viability, T/C (second compound 10 µM, first compound 0.0316 µM) 44.5% | viability, T/C (second compound 10 µM, first compound 0.1 µM) 36.4% | viability, T/C (second compound 10 µM, first compound 0.316 µM) 29.3% | viability, T/C (second compound 10 µM, first compound 1 µM) 29.4%
22.2 nM: IC50 (curve of first compound, second compound 10 µM)
< 3.16 nM: IC50 (curve of first compound, second compound 0.316 µM) | IC50 (curve of first compound, second compound 3.16 µM)

CCN1C(C(=O)NC23CCC(C(=O)O)(CC2)CC3)C(c2cccc(Cl)c2F)C2(C(=O)Nc3cc(Cl)ccc32)C12CCCCC2 (stereo not drawn)
inactive: viability, T/C (compound 0.00949 µM) 86.2% and 96.4%
> 3000 nM: IC50 (compound alone, run of 09/27/2022) | IC50 (curve of compound)

Source: PubChem BioAssay AID1963420 (Molecular Pharmacology Branch, DTP, NCI, 2024)
